The subject of one data set is RXR receptors. The note with it: cited from earlier work.
The next data set deals with RAR subtypes. The following applies: cited from earlier work.
The nature of data set [1]: Plasma triglyceride levels in rats. Type of data set: in vivo. The following applies: plasma, 1 mg/kg/PO daily for two weeks. Here is the method: Experimental emphysema was induced in rats as described in Example 2. Three (3) weeks post injury animals were treated with vehicle (Capmul solution) or retinoids prepared in Capmul and dosed orally at 1, 3, and 10 mg/kg body weight. Animals were treated for 14 days prior to termination of study. Lung harvest and blood collection was performed as described in Example 2.
Quantitation of triglycerides contained in rat plasma was performed after using established procedures in a contact clinical laboratory facility. Briefly, plasma triglycerides were converted to dihdroxyacetone and H2 O2, by sequential treatment of plasma with lipase and glycerokinase according directions described by manufacturer of triglycerides/GPO kit (Boehringer Mannheim #1488872). H2 02 was quantitated calorimetrically in a Hitachi 911 Chemistry Analyzer. In rats normal triglyceride levels are 75-175 mg/dl.
Dosage was at 1 mg/kg/PO daily for two weeks. […] Therefore, it appears that RARα selective activity is linked to elevated triglyceride levels.

In the next data set the test system is experimental emphysema. Nature of the data set: Alveolar repair in rat experimental emphysema, oral dosing. The following applies: 1 mg/kg/PO daily for two weeks. Type of data set: in vivo, rats. Here is the method: Three (3) weeks post injury animals were treated with vehicle (Capmul solution) or retinoids prepared in Capmul and dosed orally at 1, 3, and 10 mg/kg body weight. Animals were treated for 14 days prior to termination of study.
Dosage was at 1 mg/kg/PO daily for two weeks.

For the next data set, the system named is emphysema. The note with it: animal models of emphysema; cited from earlier work.
In data set [2] the test system is elastase-induced emphysema. The data set is described as follows: Alveolar repair in rat model of elastase-induced emphysema, intraperitoneal. It counts as in vivo, male Sprague Dawley rats. Also on record: Alveolar Area: unit not given here. Here is the method:
Animals were divided into treatment groups of approximately eight. […] Three weeks post injury ATRA or a RAR selective agonist was dissolved in DMSO (20 mg/ml) and stored at -20 C. Fresh working stocks were prepared fresh daily by dilution in corn oil to a final concentration of 2 mg/ml. […] Control groups were challenged with elastase and 21 days later treated with Vehicle (DMSO/PBS) for 14 days. Animals were sacrificed 24 hours after the last dose of by exsanguination under deep anesthesia. Blood was collected at time of exanguination for analysis of changes in blood chemistry from respective treatments. The lungs were inflated with 10% neutral buffered formalin by intratracheal instillation at a constant rate (1 ml/gram body mass/min). The lung was excised and immersed in fixative for 24 hours prior to processing. Standard methods were used to prepare 5 um paraffin sections. Sections were stained with Hematoxylin and Eosin (H%E). Computerized Morphometric analysis was performed to determine the average alveolar size and alveolar number.

For the next data set, the system named is alveolar septation. The following applies: postnatal administration, newborn rats, cited from earlier work.
The subject of a further data set is tropoelastin gene. Nature of the data set: RAR transactivation of steady state tropoelastin gene in normal human lung fibroblasts (CCD-16Lu). Type of data set: cell-based. Here is the method: Transactivation of the tropoelastin gene in normal human lung fibroblasts (CCD-16Lu) was performed as described below. Cells were grown to confluence at which time fresh media +/- ATRA or selective retiniod was added to the basal culture. ATRA and/or selective retiniods were used at a concentration of 1×10^-7 M. The cell layer was lysed using a guanidinium-based buffer (TRIZOL/Sigma) for RNA extraction and analysis. Amplification of tropoelastin and GAPDH RNA was performed by standard quantitative RT-PCR (TAQMAN, Perken/Elmer) using appropriate selective primers. Tropo-elastin gene expression was normalized to the expression of standard house-keeping gene (GAPDH).
Samples were run in triplicate.

Where two headings read alike, the source gives them in different places.

On to `CC1=C(/C=C/C(C)=C\C=C\C(C)=C\C(=O)O)C(C)(C)CCC1` [9-cis retinoic acid], for which the “binding to RXR receptors (in words)” value with RXR receptors is “is the natural ligand”.

Consider `CC1=C(/C=C/C(C)=C/C=C/C(C)=C/C(=O)O)C(C)(C)CCC1` [RAR Agonist 4, All-trans retinoic acid], for which, in the data set with RAR subtypes, the “binding to the three RAR subtypes (in words)” value was “binds with approximately equal affinity to all the three RAR subtypes”. Besides, the “triglyceride levels (in words)” value in data set [1] is listed as “either on the high end of normal or elevated”. In data set [1] (normal rat 75-175 mg/dl), the “[Triglyceride]” value came out at 182 mg/dL. Besides, the “% Repair” value in the data set on experimental emphysema is recorded as 37.6%; in data set [2] (0.5 mg/kg ip once daily, from 21 days post injury, 14 days) it was 50%. The “formation of new alveoli and elastic recoil (in words)” value with emphysema is “can induce formation of new alveoli and return elastic recoil to near normal”. In addition, the “Alveolar Area” value in data set [2] (0.5 mg/kg ip once daily, from 21 days post injury, 14 days, naive 1637 +/- 153, elastase + vehicle 3570 +/- 319) is reported as 2607 +/- 191. The “alveolar repair (in words)” value in data set [2] (elastase-treated rats, 0.5 mg/kg ip) is on record as “induces alveolar repair, reversing the alveolar destruction caused by treatment with elastase”. Moreover, the “number of alveoli / septation in lungs (in words)” value in the data set with alveolar septation (listed as ATRA) is “the capacity of dexamethasone to prevent the expression of CRBP and RARβ mRNA and subsequent alveolar septation in developing rat lung was abrogated by ATRA”. Besides, the “Tropo-elastin Expression” value in the data set on tropoelastin gene (CCD-16Lu, 1×10^-7 M, RT-PCR, triplicate, untreated control 30.90) was 35.50 (Elastin/GAPDH) × 10^5. Also, the “tropoelastin gene induction (in words)” value in the data set with tropoelastin gene (human lung fibroblasts, compared to the control) is given as “slightly induces tropoelastin gene induction”. Also, the “binding to RXR receptors (in words)” value in the data set with RXR receptors is given as “does not bind to the RXR receptors”.

With `CC1=C(/C=C/C(C)=C/C=C/C(C)=C/C(=O)O)C(C)(C)CCC1` [retinoic acid], the “number of alveoli / septation in lungs (in words)” value with alveolar septation is listed as “increases the number of alveoli in rats”.
